Data set [1] has as its system caterpillars of the armyworm (Spodoptera frugiperda). In words: Spodoptera frugiperda spray test (SPODFR). The data set is classed as in vivo. To be noted: maize leaf discs, after 7 days. The method, boiled down:
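Maize leaf discs sprayed with compound in acetone/DMF with alkylaryl polyglycol ether emulsifier (1000 ppm) in water, dried, then infested with armyworm caterpillars. Mortality (%) scored after 7 days; 100% = all caterpillars killed, 0% = none killed.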

In data set [2] the test system is green peach aphid (Myzus persicae). In words: Myzus persicae spray test (MYZUPE). The data set is classed as in vivo. Conditions: Chinese cabbage leaf discs, after 6 days. The method, then:
G. Myzus persicae-spray Test (MYZUPE)
Solvents: 78 parts by weight of acetone
• 1.5 parts by weight of dimethylformamide Emulsifier: alkylaryl polyglycol ether
To produce a suitable preparation of active compound, 1 part by weight of active compound is dissolved using the stated parts by weight of solvent and made up with water comprising an emulsifier concentration of 1000 ppm until the desired concentration is reached. To produce further test concentrations, the preparation is diluted with emulsifier-containing water.
Discs of Chinese cabbage leaves (Brassica pekinensis) infested by all stages of the green peach aphid (Myzus persicae) are sprayed with an active compound preparation of the desired concentration.
After 6 days, the efficacy in % is determined 100% here means that all of the aphids have been killed; 0% means that no aphids have been killed.

In data set [3] the test system is larvae of the mustard beetle (Phaedon cochleariae). In words: Phaedon cochleariae spray test (PHAECO). The data set is classed as in vivo. To be noted: Chinese cabbage leaf discs, after 7 days. The method in brief: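 Compound dissolved in acetone/dimethylformamide with alkylaryl polyglycol ether emulsifier, made up in water containing 1000 ppm emulsifier, then diluted to test concentrations and sprayed against mustard beetle larvae. Efficacy (% larvae killed) scored after 7 days.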

In data set [4] the test system is adult cat fleas (Ctenocephalides felis). Nature of the data set: Ctenocephalides felis in vitro contact test with adult cat fleas (T1). Conditions: after 48 h. The method in brief: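 Test compound was dissolved in acetone p.a. (9 mg per 1 ml) and diluted as needed. 250 μl was spread evenly over the inner walls and floor of a 25 ml test tube by rotating on an orbital shaker for 2 h at 30 rpm. Once the solvent evaporated, 5-10 adult Ctenocephalides felis were added. Tubes were capped with a perforated plastic lid and kept horizontal at room temperature and ambient humidity.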

Data set [5] concerns greenhouse red spider mite (Tetranychus urticae). Nature of the data set: Tetranychus urticae spray test, OP-resistant (TETRUR). The data set is classed as in vivo. To be noted: bean leaf discs, after 6 days. The method in brief: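 Bean leaf discs carrying all stages of OP-resistant Tetranychus urticae were sprayed with compound formulated in acetone/dimethylformamide and diluted in water with 1000 ppm alkylaryl polyglycol ether emulsifier. Mortality (% efficacy, 100% = all mites killed) scored after 6 days.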

Data set [6] has as its system adult dog ticks (Rhipicephalus sanguineus). Nature of the data set: Rhipicephalus sanguineus in vitro contact test with adult brown dog ticks (T2). Conditions: after 48 h. The method in brief:
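Acetone solutions coated onto test tube walls and floor, giving 5 μg/cm^2 at 900 ppm. Five to ten adult ticks held per tube in the dark at room temperature for 48 h, then heated at 45-50° C for up to 5 min; efficacy is the percentage of dead or moribund ticks unable to climb away.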

A short description of data set [7]: logP determination by HPLC on a reversed-phase column (C18), EEC Directive 79/831 Annex V.A8. It counts as physicochemical. To be noted: HPLC on reversed-phase column (C18), acetonitrile/water with formic acid, EEC Directive 79/831 Annex V.A8. The method, boiled down:
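Retention on a C18 reversed-phase column (Zorbax Eclipse Plus, 1.8 micron) was used, eluting with acetonitrile/water, each containing formic acid. The gradient ran from 10% to 95% acetonitrile over 4.25 min, then held 1.25 min, at 55° C and 2.0 ml/min, with MS detection.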

As for `Cn1nc(C(F)(F)C(F)(F)F)c(C(F)(F)F)c1-n1cc(-c2ccc(Cl)c(C(=O)NC3CCCC3)c2)cn1` [Ic-141], the efficacy in % in data set [1] (application rate 500 g/ha), in data set [2] (application rate 500 g/ha), in data set [3] (application rate 500 g/ha) and in data set [5] (application rate 500 g/ha) was 100% throughout. In addition, the “efficacy (dead or moribund fleas)” value in data set [4] (application rate 1 μg/cm^2) and in data set [4] (application rate 5 μg/cm^2) was 100% throughout. For the same compound, the figures for the “efficacy (dead or moribund ticks)” value in data set [6] (application rate 1 μg/cm^2) and in data set [6] (application rate 5 μg/cm^2) were 80% and 100%, respectively.

What is called logP is a log measure of how a compound divides between an organic and an aqueous phase. Low readings indicate lower lipophilicity, high ones higher lipophilicity. For the compound `CON=Cc1ccc(-c2cnn(-c3c(C(F)(F)F)c(C(F)(F)C(F)(F)F)nn3C)c2)cc1C(=O)NC1CC1` (mixture of isomers) [Ic-118], the efficacy in % in data set [1] (application rate 100 g/ha), in data set [2] (application rate 100 g/ha), in data set [3] (application rate 100 g/ha) and in data set [5] (application rate 100 g/ha) was 100% each time. For the same compound, the “efficacy (dead or moribund fleas)” value in data set [4] (application rate 1 μg/cm^2) and in data set [4] (application rate 5 μg/cm^2) was 100% throughout. In data set [7], this compound yielded a logP of 3.99.

For the compound `CSCCNC(=O)c1cc(-c2cnn(-c3c(C(F)(F)F)c(C(F)(F)C(F)(F)F)nn3C)c2)ccc1Cl` [Ic-167], the efficacy in % in data set [1] (application rate 500 g/ha) is recorded as 100%; in data set [2] (application rate 500 g/ha) it was 90%; in data set [3] (application rate 500 g/ha), 100%; in data set [5] (application rate 500 g/ha), 100%. Further, the “efficacy (dead or moribund fleas)” value in data set [4] (application rate 1 μg/cm^2) and in data set [4] (application rate 5 μg/cm^2) was 100% throughout. For the same compound, the “efficacy (dead or moribund ticks)” value in data set [6] (application rate 1 μg/cm^2) and in data set [6] (application rate 5 μg/cm^2) was 100% in each case.

Turning to `Cn1nc(C(F)(F)C(F)(F)F)c(C(F)(F)F)c1-n1cc(-c2ccc(Cl)c(C(=S)NC3CC3)c2)cn1` [Ic-132], the efficacy in % in data set [1] (application rate 100 g/ha) was found to be 100%; in data set [2] (application rate 100 g/ha), 90%; in data set [3] (application rate 100 g/ha), 100%; in data set [5] (application rate 100 g/ha) it was 100%. This compound had a logP in data set [7] of 4.34.

For the compound `Cn1nc(C(F)(F)C(F)(F)F)c(C(F)(F)F)c1-n1cc(-c2ccc(S(C)(=O)=O)c(C(=O)NC3CC3)c2)cn1` [Ic-190], the efficacy in % in data set [1] (application rate 100 g/ha), in data set [2] (application rate 100 g/ha), in data set [3] (application rate 100 g/ha) and in data set [5] (application rate 100 g/ha) was 100% each time. The same compound registered a logP in data set [7] of 3.35.

Take `CC1CC1NC(=O)c1cc(-c2cnn(-c3c(C(F)(F)F)c(C(F)(F)C(F)(F)F)nn3C)c2)ccc1Cl` (centres unmarked) [Ic-79]: the efficacy in % in data set [1] (application rate 100 g/ha) is 100%; in data set [2] (application rate 100 g/ha), 90%; in data set [3] (application rate 100 g/ha), 100%; in data set [5] (application rate 100 g/ha), 100%. The logP in data set [7] was determined as 4.15.

Regarding `CCOC1CC1NC(=O)c1cc(-c2cnn(-c3c(C(F)(F)F)c(C(F)(F)C(F)(F)F)nn3C)c2)ccc1Cl` (centres unmarked) [Ic-186], the efficacy in % in data set [1] (application rate 500 g/ha) stood at 100%; in data set [2] (application rate 100 g/ha) it was 90%; in data set [3] (application rate 500 g/ha), 100%; in data set [5] (application rate 500 g/ha) it was 90%. For the same compound, the logP in data set [7] is 3.73.

On to `CSC1CC(NC(=O)c2cc(-c3cnn(-c4c(C(F)(F)F)c(C(F)(F)C(F)(F)F)nn4C)c3)ccc2Cl)C1` (centres unmarked) [Ic-108], for which the efficacy in % was found to be 83% in data set [1] (application rate 100 g/ha), 90% in data set [2] (application rate 100 g/ha), 100% in data set [3] (application rate 100 g/ha) and 100% in data set [5] (application rate 100 g/ha). Moreover, the “efficacy (dead or moribund fleas)” value in data set [4] (application rate 1 μg/cm^2) and in data set [4] (application rate 5 μg/cm^2) was 100% throughout. Moreover, the “efficacy (dead or moribund ticks)” value in data set [6] (application rate 5 μg/cm^2) is 80%. In data set [7], this compound registered a logP of 4.28.

Take `Cn1nc(C(F)(F)C(F)(F)F)c(C(F)(F)F)c1-n1cc(-c2ccc(Cl)c(C(=O)NC3CC(S(C)(=O)=O)C3)c2)cn1` (centres unmarked) [Ic-122]: the efficacy in % came out at 100% in data set [1] (application rate 100 g/ha), 90% in data set [2] (application rate 100 g/ha), 100% in data set [3] (application rate 100 g/ha) and 100% in data set [5] (application rate 100 g/ha). Also, the logP in data set [7] worked out at 3.24.

The record behind these values is patent US9487489B2, “Halogen-substituted pyrazole derivatives as pest-control agents” (BAYER CROPSCIENCE AKTIENGESELLSCHAFT, priority 2013, dated 2016).
